Reference: PubChem BioAssay (NCI)
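Five concentrations, 48 hours, 96-well plates. Definition used: TGI = concentration required for complete inhibition of growth.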 *1 amine or outer side, *2 acyl side, *3 side chain or, on linkers, in order; H or OH if unused. Where a SMILES comes first, the peptide text is derived from it. The star is where a group is joined. γGlu = O=C(O)[CH](CCC(=O)[*:2])N[*:1]; NHOH = ON*

Assays:
Assay in all cases: DTP human tumour cell line panel, 48 h
[1] = test system: ACHN renal
[2] = test system: CCRF-CEM leukemia
[3] = test system: COLO 205 colon
[4] = test system: DU-145 prostate
[5] = test system: EKVX NSCLC
[6] = test system: IGROV1 ovarian
[7] = test system: K-562 leukemia
[8] = test system: NCI-H460 lung
[9] = test system: NCI-H522 lung
[10] = test system: OVCAR-3 ovarian
[11] = test system: RPMI-8226 leukemia
[12] = test system: RXF 393 renal
[13] = test system: SF-268 CNS
[14] = test system: SF-539 CNS
[15] = test system: SK-OV-3 ovarian
[16] = test system: SNB-75 CNS
[17] = test system: SR leukemia
[18] = test system: TK-10 renal
[19] = test system: UACC-257 melanoma
[20] = test system: MDA-N

SMILES	TGI [1] [µM]	TGI [2] [µM]	TGI [3] [µM]	TGI [4] [µM]	TGI [5] [µM]	TGI [6] [µM]	TGI [7] [µM]	TGI [8] [µM]	TGI [9] [µM]	TGI [10] [µM]	TGI [11] [µM]	TGI [12] [µM]	TGI [13] [µM]	TGI [14] [µM]	TGI [15] [µM]	TGI [16] [µM]	TGI [17] [µM]	TGI [18] [µM]	TGI [19] [µM]	TGI [20] [µM]
CC(=O)N(CCCCNC(=O)C(F)(F)F)CCCNC(=O)C(F)(F)F	> 100	> 100	> 100	> 100	> 100	> 100	> 100	> 100	> 100	> 100	> 100	> 100	> 100	> 100	> 100	> 100	> 100	> 100	> 100	
Cc1cc(-c2cscn2)c(O)c([N+](=O)[O-])c1	> 100	> 100	> 100		> 100	> 100	> 100	> 100			> 100			> 100	96			> 100	> 100	> 100
O=C(c1ccccc1)N1CCC(Nc2nccs2)O1 (centres undefined)	> 10	> 10	> 10	> 10	> 10	> 10	> 10	> 10	> 10	> 10	> 10	> 10	> 10	> 10	> 10	> 10	> 10	> 10	> 10	
CC(NC(=O)OC(C)(C)C)C(=O)NC(Cc1ccccc1)C(=O)NCC(=O)Oc1c(Cl)c(Cl)c(Cl)c(Cl)c1Cl (centres undefined)	67.6		70.9		48.7	44.2	> 100	63.3			54.9	35.4				> 100	64.7	71.5	54.5	90.6
O=C(Nc1ncc([N+](=O)[O-])s1)c1ccccc1O	> 84.5		36.1	> 89.4	> 92.2	> 100	> 100	> 100	28.3	> 42.4	55	23.6	> 75.1	> 100	> 100	> 70.8		> 100	98.4	99.4
COc1c(Br)cc(/C=C(\C#N)c2ccccn2)cc1Br	> 100	> 100	> 100	> 100	50.9	> 100	> 100	> 100	> 100	> 100	> 100	75.1	> 100	> 100	> 100	17.1	> 100	> 100	> 100	
C=C1CC(C)(COc2ccc3c(C)cc(=O)oc3c2)OC1=O (centres undefined)	7.37	2.46	2.86	8.96	17.8	8.98	> 31.9	20.8	0.491	11	2.57		20.2	4.59	15.1	16.3	4.33	4.06	4.35	8.29
Cn1cnc2c1c(=O)n(CCNCCO)c(=O)n2C	> 100	> 100	> 100	> 100	> 100	> 100	> 100	> 100	> 100	> 100	> 100	> 100	> 100	> 100	> 100	> 100		> 100	> 100	> 100
Cc1cccc(/C=N/NC(=S)N(C)CCc2ccccn2)n1	1.15	0.0974	> 100		> 100	24.6	> 45.6	> 52.5	> 100	> 100	0.388		> 100	6.8	> 100	21.9	> 100	> 100	45.6	> 100
O=C1OCCC[C@H]2O[C@@H](COCc3ccccc3)C[C@@H]12	> 100	> 100	> 100	> 100			> 100	> 100		> 100	> 100		> 100	> 100	> 100	> 100	> 100	> 100	> 100	> 100
COC(=O)C(/C(=N/N)C(=O)Nc1cccc(O)c1)c1nc2ccccc2[nH]c1=O (centres undefined)	> 100				> 100	> 100	> 100	> 100	> 100	> 100		> 100	> 100	> 100	> 100	> 100	> 100	> 100	> 100	> 100
Cc1ccc(/C=C2\NC(=S)N(CN3CCCCC3)C2=O)cc1	> 100	86.7	39.8	> 100	> 100	> 100	> 100		> 100	> 100	> 100		> 100		> 100	> 100	> 100	> 100		> 100
Clc1ccc(-c2nc3ccc4ccccc4c3c3c2CCCC3)cc1		> 100	> 100	> 100	> 100	> 100	> 100	> 100	> 100	> 100	> 100	> 100	> 100	> 100	> 100	> 100		> 100	> 100	> 100
OCCCCCCCCCCCOc1ccc(C2OCC3(CC=CCC3)CO2)cc1 (centres undefined)	33.3	55.6	46.8	32.6	23.8	33		36.5	23.4	57.3	> 100		40.9	45.6	37	28.2	17.1	32.1	38.2	32
CCCCCCC1CC(=O)C1(Cl)Cl (centres undefined)	35.8	29.6		92.8	> 100	61.8	> 100		34.6		2.48		66.5	> 100	> 100	36		> 100	41.1	85
CCOC(=O)CNC(=O)C(CCC(=O)NO)NC(=O)CCC(N)C(=O)O (centres undefined) (γGlu-Glu(NHOH)-Gly-OEt; configuration not given here)	> 100	> 100	> 100	> 100	> 100	> 100	> 100	> 100	> 100	> 100	> 100	> 100	> 100	> 100	> 100	> 100		> 100	> 100	> 100
Cc1c(N=Nc2ccc(Cl)cc2)c(C)n(C2OC(CO)C(O)C(O)C2O)c(=S)c1C#N (centres undefined)	55.5	53.5	40.6	> 100	93.2	37.4	55.4	87.4	49.9	34.2	50.3	71.6	52.1	38	> 100	68		79.5	54.1	50.4
COc1ccc(Nc2nc3ccc(C(F)(F)F)cc3nc2C(=O)O)cc1		63.5	> 100	> 100	> 100	39.5	> 100	83.7		47.4	66.5	62.6	> 100	75.9	71.5	78.6		> 100	96.7	> 100
COc1cc2c(cc1OC)C(=O)/C(=C/c1cc(Cl)cc(Cl)c1)C2	> 100	> 100	> 100	> 100	> 100	> 100	> 44.4	> 100		> 100	> 100	> 100	> 100	9.94	> 54.6			> 100	> 100	4.86
CSc1nc(Br)nc2ncn(C3CC(Oc4ccc(C)cc4)C(COc4ccc(C)cc4)O3)c12 (centres undefined)	> 100	> 100	> 100	> 100	> 100	> 100		> 100	> 100	> 100	> 100		> 100	> 100	> 100	> 100		> 100	> 100	> 100
CCn1c(O)c(C=Nc2ccccc2)s/c1=N/Nc1nc(-c2ccc(O)c(O)c2)cs1	> 100	57	> 100	> 100	> 100	> 100	26.5	> 100	98.2	49	46.6	> 100	> 100	4.76	> 100	> 100	15.9	> 100	> 100	
